Assay results: patent US11419803B2, “Skin darkening composition” (Conopco, Inc., priority 2017, dated 2022)

Columns and labels:
[1] = system: Neonatal foreskin primary human epidermal melanocytes; test: Cell viability, calcein method; assay type: cell-based
Protocol: (§1) All test compounds were purchased from SIGMA-ALDRICH as powders. They were tested at various concentrations in cell culture (see below). Forskolin (SIGMA Cat. # F6886) was used as reference comparators, as they have been reported to increase melanin content. Neonatal foreskin primary human epidermal melanocytes were procured from Cascade Biologicals (labelled passage P0). Melanocytes were maintained in Medium 254CF (Cascade Cat. # M-254CF-500) supplemented with human melanocyte growth supplement (Cascade; Cat. # S-002-5), hereafter referred to as MGM. Cells were maintained at 37° C. in a humidified incubator with 5% CO2 atmosphere.
(§2) 50,000 cells were seeded in 24 well plate in MGM; after 24 hours, cultures were treated with various concentrations of the test materials and left undisturbed for a further period of 72 hours. Comparative vehicle controls of 0.25% (v/v) DMSO were also set up in parallel, simultaneously. At the end of the incubation period, cell viability was determined using the calcein method.
Briefly, cell culture spent media was removed and cells washed once with 0.4 ml of 1× PBS-Ca—Mg solution. Fresh 1 μM calcein-AM was added (0.2 ml/well), including to control wells without cells. Plates were covered with aluminium foil and incubated for 30 minutes. at 37° C. in the regular CO2 incubator. Calcein fluorescence was then measured (λmax 490 nm and λmax 520 nm) in TECAN® M1000 Infinite series plate reader.
(§3) Calcein fluorescence values were ratio converted in 0 to 100 scale (% viability), with 100 representing the value of the 0.25% DMSO sample. % Melanin content was calculated as the ratio between OD405 nm value of any sample to that of DMSO reference sample.

[2] = system: Neonatal foreskin primary human epidermal melanocytes; test: Melanin content assay; assay type: cell-based; conditions: 72 hours, compared to vehicle control = 100
Protocol: as §1, §2
After calcein fluorescence readings were obtained, cells were drained and added fresh 125 μl of 1N NaOH (in 10% DMSO) per well. Cells were lysed by resuspension and incubation (60° C./1 hour.). Then this lysate was transferred to a fresh […] and measured OD405 nm in a TECAN M1000 plate reader (estimate of relative melanin content).
as §3
Normalized melanin content value was then calculated as 100*(% Melanin Content)/(% Cellular viability).
The percentage Increase in melanin content was estimated as [(Normalized melanin content)−100]

SMILES	% Viability ([1]; 10 micromolar, 72 hours, relative to 0.25% DMSO control = 100)	% Viability ([1]; 15 micromolar, 72 hours, relative to 0.25% DMSO control = 100)	% Viability ([1]; 20 micromolar, 72 hours, relative to 0.25% DMSO control = 100)	% Viability ([1]; 25 micromolar, 72 hours, relative to 0.25% DMSO control = 100)	% Melanin content ([2]; 10 micromolar)	% Melanin content ([2]; 15 micromolar)	% Melanin content ([2]; 20 micromolar)	% Melanin content ([2]; 25 micromolar)	% Viability ([1]; human, 72 h, 10 µM)	% Viability ([1]; human, 72 h, 15 µM)	% Viability ([1]; human, 72 h, 20 µM)	% Viability ([1]; human, 72 h, 25 µM)	% Viability ([1]; human, 72 h, 5 µM)	% Melanin content ([2]; 5 micromolar)	% Viability ([1]; human, 72 h, 6.25 µM)	% Viability ([1]; human, 72 h, 12.5 µM)	% Melanin content ([2]; 6.25 micromolar)	% Melanin content ([2]; 12.5 micromolar)
CCCCCCCOc1ccc(C(=O)O)cc1 [Example 2, 4-heptyloxybenzoic acid]	94%	96%	95%	96%	117%	126%	129%	137%	–	–	–	–	–	–	–	–	–	–
CCCCCCCCCCCOc1ccc(C(=O)O)cc1 [Example 5, 4-undecyloxybenzoic acid]	–	–	–	–	136%	146%	134%	120%	97%	100%	90%	79%	–	–	–	–	–	–
CCCCCCCCOc1ccc(C(=O)O)cc1 [Example 3, 4-octyloxybenzoic acid]	–	–	–	–	127%	144%	127%	86%	101%	103%	100%	86%	–	–	–	–	–	–
CCCCCCCCCOc1ccc(C(=O)O)cc1 [Example 4, 4-nonyloxybenzoic acid]	–	–	–	–	129%	136%	130%	137%	109%	109%	103%	103%	102%	126%	–	–	–	–
CCCCCCCc1ccc(C(=O)O)cc1 [Example 1, 4-heptyl benzoic acid]	–	–	–	–	–	–	–	113%	–	–	–	93%	–	–	102%	102%	124%	129%
